Results: patent US6221676A, “DNA encoding human leukotriene C4 synthase, polypeptides and uses therefor” (Brigham and Women's Hospital, priority 1997, dated 2001)
Values belong to the molecule of their own block, whether it stands above or below them.

Columns and labels:
LTC4 synthase = target: T1, LTC4 synthase (Homo sapiens, UniProt Q16873); test: Inhibition of LTC4 synthase activity (conversion of LTA4-ME to LTC4-ME) in lysates of transfected COS-7 cells; assay type: biochemical
T1 construct: expressed in transfected cells; host or cells: COS-7 (lysate of transfectants; cDNA from a KG-1 library in pcDNA3)
T1 sequence (Q16873 1-150): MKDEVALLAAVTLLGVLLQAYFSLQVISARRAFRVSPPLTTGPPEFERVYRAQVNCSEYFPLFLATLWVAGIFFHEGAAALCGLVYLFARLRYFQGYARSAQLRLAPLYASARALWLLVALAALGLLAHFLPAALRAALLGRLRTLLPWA
Protocol: HPLC was carried out with a model 126 dual pump system and model 167 scanning UV detector (Beckman Instruments) controlled by an IBM PS2/50 computer using Beckman System Gold software. Samples were applied to a 5-μm 4.6×250-mm C18 Ultrasphere reverse phase column (Beckman Instruments) equilibrated with a solvent of methanol/acetonitrile/water/acetic acid (10:15:100:0.2, v/v), pH 6.0 (solvent A). After injection of the sample, the column was eluted at a flow rate of 1 ml/min with a programmed concave gradient (System Gold curve 6) to 30% solvent A and 70% pure methanol (solvent B) over 0.2 min. After 2.8 min more, solvent B was increased linearly to 90% over 2 min and was maintained at this level for an additional 10 min. UV absorbance at 280 nm and the UV spectra were recorded simultaneously. The retention times for PGB2 and LTC4 -ME were 8.5 and 10.1 min, respectively. LTC4 -ME was quantitated by calculating the ratio of the peak area to the area of the internal standard PGB2.
Dose-Response Assay using MK886
Cell lysates of the COS-7 cell transfectant containing SEQ ID NO.: 1 were incubated with 20 micromolar LTA4 -ME, 20 mM GSH, 5 mM MgCl2 in HEPES buffer (pH 7.6), in the presence of 0-10 micromolar MK-886 for 10 minutes at room temperature. Reactions were stopped by addition of 2 volumes of methanol containing 200 ng PGB2. Samples were analyzed by RP-HPLC.
Lysates from transfected COS cells were analysed for LTC4, the product of conjugating reduced glutathione with 5,6-oxido-7,9-E-11,14-Z-eicosatetraenoic acid. […] At 10 μM, MK-886 inhibits more than 90% of the enzyme activity.

[1] = Conjugation of GSH to 1-chloro-2,4-dintrobenzene by purified LTC4 synthase fraction; assay type: biochemical; conditions: fraction purified from native KG-1 cells
Description: Detergent-solubilize LTC4 synthase from 6×10^10 native KG-1 cells (using 0.4% deoxycholate, 0.4% Triton X-102, 10% glycerol) was purified by S-hexylglutathione-agarose chromatography using procedures adapted from Penrose et al., Proc. Nat. Acad. Sci., USA, 89:, above, followed by LTC2 affinity chromatography. Active fractions purified from the S-hexylglutathione-agarose column were combined, concentrated (Amicon, Danvers, Mass.) and then loaded onto an LTC2 affinity column equilibrated with buffer A and 0.1% Triton X-102. The column was washed with the same buffer and the enzyme was eluted with buffer A, containing 0.1% Triton X-102, 0.5 M NaCl and 5 mM reduced glutathione.
The LTC4 synthase activity contained a single 18-kDa protein by sodium dodecyl sulfate-polyacrylamide gel electrophoresis (NaDodSO4 -PAGE) with silver staining. […] A sample of the purified protein was concentrated and added to an equal volume of reducing buffer, and the mixture was boiled for 5 min. The reduced protein in this solution was bound to a polyvinylidene membrane by incubation overnight at 4° C. The bound protein was analyzed for N-terminal amino acid sequence by automated Edman degradation or was digested in situ with trypsin. Fernandez et al., Anal. Biochem., 201: 255-264 (1992). […]

effect on LTC4 synthase activity (LTC4 synthase; at a concentration of 10 μM, COS cell lysates): did not affect LTC4 synthase activity
Molecule: C[C@H](C#Cc1ccc(Oc2ccc(F)cc2)o1)N(O)C(N)=O [A79175]

Molecule: CC(C)c1ccc2c(c1)c(SC(C)(C)C)c(CC(C)(C)C(=O)O)n2Cc1ccc(Cl)cc1 [MK-886]
IC50 (LTC4 synthase; IC50, inhibition of conversion of LTA4-ME to LTC4-ME, 20 uM LTA4-ME, COS cell lysates, dose-dependent, 10 minutes, room temperature): < 3 µM
IC50 (LTC4 synthase; ID50, inhibition of LTC4 synthase activity, transfected COS cell lysates, dose-related (Discussion)): ~3 µM
inhibition at 10 µM (LTC4 synthase; read-out: inhibition of the enzyme activity): > 90%

B1: LTC4 synthase: 150-amino acid residue integral membrane protein with three hydrophobic transmembrane domains (protein, UniProt Q16873 1-150, looked up)
Leukotriene C4 synthase: T1 sequence (Q16873 1-150)
conjugation of GSH to 1-chloro-2,4-dintrobenzene [1]: did not conjugate GSH to 1-chloro-2,4-dintrobenzene
